Results published in patent US20060035810A1, “Regulation of ins(3456)p4 signalling by a reversible kinase phosphatase and methods and compositions related thereto” (priority 2002, published 2006).

Key:
[1] = molecular target: T1, Ins(1,3,4,5,6)P5 1-phosphatase activity of Ins(3,4,5,6)P4 kinase (Homo sapiens, UniProt Q13572); test: Inositol phosphate phosphatase activity assay with ADP (HPLC); assay type: biochemical; details: 5 μM Ins(1,3,4,5,6)P5, 5 mM ADP, addition of 1-5 μM Ins(1,3,4)P3
T1 construct: made in house; host or cells: E. coli
T1 sequence (Q13572 1-414): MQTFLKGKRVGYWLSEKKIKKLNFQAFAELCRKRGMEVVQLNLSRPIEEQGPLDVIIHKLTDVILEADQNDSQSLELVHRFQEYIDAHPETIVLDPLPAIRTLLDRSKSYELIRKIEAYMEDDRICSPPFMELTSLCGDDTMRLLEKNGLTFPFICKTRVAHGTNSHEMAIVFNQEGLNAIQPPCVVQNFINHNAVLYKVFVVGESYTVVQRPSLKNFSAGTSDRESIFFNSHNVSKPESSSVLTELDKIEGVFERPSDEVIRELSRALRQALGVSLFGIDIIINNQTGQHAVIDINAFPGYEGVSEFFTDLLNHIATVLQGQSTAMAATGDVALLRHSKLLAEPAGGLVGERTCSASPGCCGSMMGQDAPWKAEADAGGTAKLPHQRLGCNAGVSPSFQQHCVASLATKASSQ
Procedure: Ins(3,4,5,6)P4 kinase (0.4 μg) was incubated for 30 min in 100 μl phosphatase assay buffer (see Methods) either with (closed circles) or without (open circles) 5 mM ADP plus trace-amounts of either [^3H]Ins(1,3,4,5,6)P5 (panel A) [^3H]Ins(1,3,4,6)P4 (panel B), or [^3H]Ins(1,3,4,5)P4 (panel C). Samples were analyzed by HPLC (see Methods). The elution positions of Ins(1,3,4)P3 and Ins(3,4,5,6)P4 were verified with genuine standards. The elution positions of Ins(1,3,4,6)P4 (106 min, panel B) and of Ins(1,3,4,5)P4 (110 min, panel C) exclude these as products of InsP5 dephosphorylation (panel A).
Additional incubations were performed with 5 μM [^3H]Ins(1,3,4)P3 (approx. 1200 d.p.m.) plus either no Ins(1,3,4,5,6)P5 (open circles) or 5 μM non-radiolabeled Ins(1,3,4,5,6)P5 (closed circles); these reactions were assayed by HPLC (Synchropak Q100 column) and the InsP4 region of the chromatogram is shown in Panel B.
(§1) Inositol phosphate phosphatase activity was assayed in buffer containing 100 mM KCl, 20 mM HEPES pH 7.2, 5 mM ADP, 6 mM MgSO4, 0.3 mg/ml bovine serum albumin. Assays were acid-quenched, neutralized and analyzed by HPLC using a Synchropak Q100 columm (Caffrey et al., “Expanding Coincident Signaling by PTEN through its Inositol 1,3,4,5,6-Pentakisphosphate 3-phosphatase Activity,” FEBS Lett 499: 6-10 (2001)); 1 ml fractions were collected for 70 min., followed by 0.5 ml fractions. Inositol phosphate kinase activity was assayed in buffer containing 100 mM KCl, 20 mM HEPES pH 7.2, 5 mM ATP, 10 mM phosphocreatine, 6 mM MgSO4, 10 μg/ml creatine phosphokinase (Calbiochem), 0.3 mg/ml bovine serum albumin. Some assays were acid-quenched and analyzed by HPLC using a Synchropak Q100 column. Other reactions were heat-inactivated (95° C., 3 min) and analyzed by a metal dye detection, HPLC method (Mayr, “A novel metal-dye detection sysytem permits picomolar-range h.p.l.c. analysis of inositol polyphosphates from non-radioactively labelled cell or tissue specimens,” Biochem J 254: 585-591 (1988); Adelt et al., “Enzyme-assisted total synthesis of the optical antipodes D-myo-inositol 3,4,5-trisphosphate and D-myo-inositol 1,5,6-trisphosphate: aspects of their structure-activity relationship to biologically active inositol phosphates,” J Med Chem 42: 1262-1273 (1999)).

[2] = molecular target: T2, Recombinant human Ins(3,4,5,6)P4 1-kinase (Homo sapiens, UniProt Q13572); test: Inositol phosphate kinase activity assay (HPLC); assay type: biochemical; details: for product of phosphorylation by the kinase: 50 uM substrate, 3.4 ug enzyme, 4 hr, 37° C., 5 mM ATP
T2 construct: made in house; host or cells: E. coli
T2 sequence (Q13572 1-414): T1 sequence (Q13572 1-414)
Procedure: as §1
Activity of 3.4 ug of inositol 3,4,5,6-tetrakisphosphate 1-kinase was assayed for 4 hr. at 37° C. in 200 μl buffer containing 100 mM KCl, 20 mM HEPES pH 7.2, 5 mM ATP, 10 mM phosphocreatine, 6 mM MgSO4, 10 μg/ml creatine phosphokinase (Calbiochem), 0.3 mg/ml bovine serum albumin and 50 uM of either inositol 3,4,5-trisphosphate, 4,5,6-trisphosphate or inositol 3,5,6-trisphosphate. Reactions were heat-inactivated (95° C., 3 min) and analyzed by a metal dye detection, HPLC method.
[…] (Manassas, Va.) supplied the CFPAC-1 cells and T84 cells. Recombinant human Ins(3,4,5,6)P4 1-kinase was expressed in E. coli and purified (Yang et al., “Multitasking in Signal Transduction by a Promiscuous Human Ins(3,4,5,6)P4 1-Kinase/Ins(1,3,4)P3 5/6-Kinase,” Biochem J 351: 551-555 (2000)). Non-radiolabeled Ins(1,3,4)P3 and Ins(1,3,4,5,6)P5 were purchased from CellSignals Inc (Lexington, Ky.). The details of the synthesis of non-radiolabeled Ins(3,4,5)P3, Ins(3,5,6)P3, Ins(4,5,6)P3 and Ins(3,4,6)P3 (as sodium salts) will be published separately by S.-K. C. Ins(3,4,6)P3 was also prepared by a different synthetic route (Mills et al., “Synthesis of D- and L-myo-inositol 1,4,6-trisphosphate, regioisomers of a ubiquitous second messenger,” J Org Chem 61: 8980-8987 (1996)). [^3H]Ins(1,3,4,5,6)P5 was prepared as previously described (Zhang et al., “The Transcriptional Regulator, Arg82, is a Hybrid Kinase with both Monophosphoinositol- and Diphosphoinositol-Polyphosphate Synthase Activity,” FEBS Lett 494: 208-212 (2001)). [^3H]Ins(1,3,4)P3 was prepared from [^3H]Ins(1,3,4,5)P4 (New England Nuclear) using recombinant Ins(1,4,5)P3/Ins(1,3,4,5)P4 5-phosphatase (Erneux et al., “Production of recombinant human brain type I inositol-1,4,5-trisphosphate 5-phosphatase in Escherichia coli. Lack of phosphorylation by protein kinase C,” Eur J Biochem 234: 598-602 (1995)). [^3H]Ins(1,3,4)P3 was converted to [^3H]Ins(1,3,4,6)P4 using Ins(1,3,4)P3 6-kinase activity (Yang et al., “Multitasking in Signal Transduction by a Promiscuous Human Ins(3,4,5,6)P4 1-Kinase/Ins(1,3,4)P3 5/6-Kinase,” Biochem J 351: 551-555 (2000)). [^3H]Ins(3,4)P2 was prepared by alkaline phosphatase attack on [^3H]Ins(1,3,4)P3 in 20 mM glycine (pH 9.0 with KOH). [^3H]Ins(1,4)P2 was purchased from New England Nuclear.

[3] = tested on: insulin granules in pancreatic β-cells; test: Insulin granule acidification, LSG fluorescence with patch-clamp and confocal imaging; assay type: cell-based, mouse
Procedure: FIG. 6. Ins(3,4,5,6)P4 inhibits acidification of insulin granules in pancreatic β-cells. FIG. 6A, Representative time-courses for intragranular acidification, monitored by increased fluorescence of LSG before and after establishment of the standard whole-cell configuration (see arrow) and the effect of perfusion of intracellular medium (containing 0.4 μM [Ca^2+]free except where “no calcium” is indicated; see Methods) plus either 0 (“control”), 1 or 10 μM Ins(3,4,5,6)P4. FIG. 6B, Mean (±SE) fluorescence changes (n-5-11), during the 60 s that followed establishment of the standard whole-cell configuration, for cells perfused with inositol phosphates as indicated at the base of the bar graph. Where indicated, DIDS (100 μM) were added to the bath solution 30 min prior to patching the cells. Statistical significance was evaluated by Student's unpaired t-test (* P<0.01).
The inositol phosphates used in this study were all purchased from CellSignals Inc (Lexington, Ky.). Insulin granule pH were monitored by combining the patch-clamp technique with confocal imaging. Pancreatic β-cells, isolated and cultured on glass coverslips for 2-24 h, were voltage clamped at −70 mV, as previously described (B9). LysoSensor-Green™ DND-189 (1 μM; Molecular Probes, Leiden, The Netherlands) was added during the last 30 min of cell culture and was also included in the extracellular buffer (B9) that continuously perfused the experimental chamber. All LSG experiments were performed at 20° C. to prevent exocytosis that otherwise interfered with the optical measurements (15). LSG fluorescence was excited using the 488 nm-line of a Zeiss 510 confocal microscope. The emitted light was collected with a 63×/1.3 NA oil objective and a >505 nm filter. Laser scanning was performed with low pixel resolution (128×128) and with 6 s intervals to minimize photo-bleaching. After gigaseal formation, it was ascertained that LSG fluorescence was stable for at least 30 s before the experiment commenced. The intracellular electrode solution contained: 125 mM K-glutamate, 10 mM KCl, 1 0 mM NaCl, 1 mM MgCl2, 5 mM HEPES, 3 mM Mg-ATP, 0.1 mM cAMP, 10 mM EGTA and 7 mM CaCl2 (˜0.4 μM free [Ca^2+]I; pH 7.2 with KOH). In some experiments, marked “no calcium”, there was no added Ca^2+, and the concentration of EGTA was 50 μM. Whole-cell capacitance measurements (at 33° C.) were made with the cells clamped at −70 mV, and the standard whole-cell configuration was established at t=0. Capacitance recordings were made using an EPC-7 patch-clamp amplifier equipped with the software Pulse (version 8.4 and later) and the X-chart extension (HEKA Elektronik, Lambrecht/Pfalz, Germany) (B9).

[4] = tested on: calcium-activated Cl− channels; test: Whole-cell Cl− current in CFPAC-1 cells (bio-assay for Ins(3,4,5,6)P4); assay type: cell-based, human; details: 100 μM introduced into CFPAC-1 cells; control 54±3 pA/pF
Procedure: T84 cells were detached by incubation with 0.25% (w/v) trypsin/0.02% (w/v) EDTA for 5-6 min. After trypsin removal, 200 μl aliquots (1.5×10^6/ml) were seeded into the circular wells (area=0.45 cm^2) of permeable supports, made by gluing (Silastic® sealant, Dow Corning, Midland, Mich.) a Sylgard® ring to filters composed of mixed cellulose esters (Millipore Corp., Bedford, Mass.). Seeded supports were floated on culture medium and incubated for 11-14 days before being mounted in modified Snapwell holders in Using chambers (EasyMount System, Physiologics Instruments, San Diego, Calif.). Transcellular Cl^− flux was then recorded as the short-circuit current as previously described. The resistance of the monolayers were (vector) 346±44 ohms/cm^2 (mean±se, n=12) and (kinase) 354±62 ohms/cm^2 (mean±se, n=12). Whole-cell Cl^− currents in CFPAC—I cells were measured at +40 mV as previously described using an intracellular Ca^2+-BAPTA buffer to clamp free [Ca^2+] to 0.5 μM [8]. One possibility is that Ins(3,4,5,6)P4 originates by phosphorylation of an InsP3 precursor. […] Control whole-cell Cl^− current (54±3 pA/pF, n—17) was reduced to 24±3 pA/pF (n=7) by 10 μM Ins(3,4,5,6)P4.

Question: How did the “increase of net accumulation of Ins(3,4,5,6)P4” value [1] turn out when O=P(O)(O)O[C@@H]1[C@H](O)[C@H](O)[C@@H](OP(=O)(O)O)[C@H](OP(=O)(O)O)[C@H]1O [Ins(1,3,4)P3, inositol 1,3,4-trisphosphate] was run?
Answer: The value was “up to 5 fold”.

Question: Which “whether the enzyme phosphorylates the inositol phosphate” value [2] does the source give for O=P(O)(O)O[C@H]1[C@H](O)[C@@H](OP(=O)(O)O)[C@H](OP(=O)(O)O)[C@@H](OP(=O)(O)O)[C@H]1O [Ins(1,3,4,5)P4] here?
Answer: The value was “does not phosphorylate”.

Question: Which “whether the enzyme phosphorylates the inositol phosphate” value [2] does the source give for O=P(O)(O)O[C@H]1[C@H](O)[C@@H](O)[C@H](OP(=O)(O)O)[C@@H](O)[C@H]1O [Ins(1,4)P2] here?
Answer: Its value is “not phosphorylated”.

Question: Which “effect on vesicle acidification” value ([3]; 100 μM) does the source give for O=P(O)(O)O[C@H]1[C@H](OP(=O)(O)O)[C@@H](OP(=O)(O)O)[C@@H](O)[C@@H](O)[C@@H]1OP(=O)(O)O [Ins(1,4,5,6)P4, inositol 1,4,5,6-tetrakisphosphate] here?
Answer: The value was “neither 100 μM Ins(1,4,5,6)P4 nor 100 μM Ins(1,3,4,5,6)P5 affected”.

Question: And the “whether the enzyme phosphorylates the inositol phosphate” value [2]?
Answer: Its value is “does not phosphorylate”.

Question: Which results are given for O=P(O)(O)OC1[C@@H](OP(=O)(O)O)[C@@H](O)C(O)[C@H](O)[C@H]1OP(=O)(O)O (stereo partly drawn) [Ins(3,4,5)P3, inositol 3,4,5-trisphosphate]?
Answer: whole-cell Cl− current [4]: 61±7 pA/pF; product of phosphorylation by the kinase [2]: phosphorylated to inositol 3,4,5,6-tetrakisphosphate

Question: Which “whole-cell Cl− current” value [4] does the source give for O=P(O)(O)O[C@H]1[C@H](O)[C@H](O)[C@H](OP(=O)(O)O)[C@@H](OP(=O)(O)O)[C@@H]1O [Ins(3,4,6)P3, inositol 3,4,6-trisphosphate] here?
Answer: Its value is 68±5 pA/pF.

Question: What about the “product of phosphorylation by the kinase” value [2] of the same molecule?
Answer: Its value is “metabolized to Ins(1,3,4,5)P4”.

Question: And the Km ([2]; read-out: Km as kinase substrate)?
Answer: The Km was 200 nM.

Question: What does the source list for O=P(O)(O)O[C@@H]1[C@@H](O)[C@H](OP(=O)(O)O)[C@@H](OP(=O)(O)O)[C@H](O)[C@@H]1O [Ins(3,5,6)P3, inositol 3,5,6-trisphosphate]?
Answer: whole-cell Cl− current [4]: 60±6 pA/pF; product of phosphorylation by the kinase [2]: phosphorylated to inositol 1,3,5,6-tetrakisphosphate

Question: Which results are given for O=P(O)(O)OC1C(O)C(O)C(O)C(OP(=O)(O)O)C1OP(=O)(O)O (stereo not drawn) [Ins(4,5,6)P3, inositol 4,5,6-trisphosphate]?
Answer: whole-cell Cl− current [4]: 56±7 pA/pF; product of phosphorylation by the kinase [2]: phosphorylated to inositol 1,4,5,6-tetrakisphosphate

Question: How did the “effect on granule acidification” value ([3]; treatment of the cells with calmodulin antagonist) turn out when NCCCCCCNS(=O)(=O)c1cccc2c(Cl)cccc12 [W-7] was run?
Answer: The value was “without effect”.
